Measured values reported in patent publication US20120003191A1, “VALPROIC ACID, DERIVATIVES, ANALOGUES, AND COMPOSITIONS INCLUDING SAME AND METHODS FOR THEIR THERAPEUTIC USE” (priority 2009, published 2012).

Legend:
[1] = system: dyw mouse model of MDC1A; test: VPA in the dyw mouse model of MDC1A (predicted); format: in vivo
Method: In particular, the effect of VPA on MDC1A is determined by using the dyw mouse model of MDC1A. VPA (60 mg/kg or 240 mg/kg body weight) is administered i.p. daily to male dyw mice (n=11 each, as determined by Power analysis with α=0.05, p=0.8 and r=0.5) for 6 weeks starting at 10 days of age. Daily body weights are noted and mice observed for signs of overt toxicity. Control mice of each genotype will be injected with the same volumes of sterile saline. At the end of the course of injections, mice are sacrificed and the gastrocnemius-soleus, quadriceps, heart and diaphragm harvested. Tissues are sectioned on a Leica CM 1850 cryostat to 10 μm. Hematoxylin-eosin staining is performed on the sections. The effect of VPA on the Akt pathway, fibrosis, apoptosis and/or fiber-diameter variation in skeletal muscle of dyw mice is determined by methods known to those of ordinary skill in the art including, but not limited to those described below.
As muscle fiber-diameter variation is a pathological feature in MDC1A muscle, it can be determined if treatment with VPA restores this parameter in dyw mice. Using image analysis software, muscle-fiber diameters are calculated in at least 500 fibers per mouse in both the VPA and control treated groups. […] Data is analyzed by ANOVA and a p-value of <0.05 is considered statistically significant.
To quantify fibrosis in muscles, western blotting is performed on muscle extracts using an antibody against collagen VI (Santa Cruz Biotechnology, Santa Cruz, Calif.). Protein extracts are made from muscles as reported (Gurpur et al., 2009) and the Bradford assay is done to determine protein concentrations. Western blotting is carried out using 1:1000 dilution of the anti-collagen VI antibody. The blots are re-probed with an antibody against tubulin to ensure equal protein loading. Band intensities are quantified using the LiCor Odyssey software (LiCor Biosciences, Lincoln, Neb.). Ratio of the collagen VI to tubulin band-intensities is calculated. […] Data is analyzed by ANOVA and a p-value of <0.05 is considered statistically significant.
Muscle fiber loss due to apoptosis is a significant problem in MDC1A patients. To determine if VPA treatment decreases apoptosis in dyw muscle, after the course of injections, mice are sacrificed and the gastrocnemius-soleus, quadriceps and diaphragm harvested. Tissues are sectioned on a Leica CM 1850 cryostat to 10 μm. The DeadEnd fluorometric TUNEL assay kit (Promega, Madison, Wis.) is used as per the manufacturer's instructions to label apoptotic nuclei in the cryosections. The total number of nuclei (DAPI labeled, fluorescing blue) and the apoptotic nuclei (fluorescing green) are counted in 15 random fields for each muscle, for each mouse. The proportion of apoptotic nuclei is quantified and compared between the VPA injected and control mice. […] Data is analyzed by ANOVA and a p-value of <0.05 is considered statistically significant.
VPA is administered to male dyw mice (n=11 each) daily for 6 weeks with 80 mg/kg or 240 mg/kg body weight of VPA starting at 10 days of age. Daily body weights are noted and mice are observed for signs of overt toxicity. Control mice are injected with the same volumes of sterile saline.
After the course of injections, mice are sacrificed and the gastrocnemius-soleus, quadriceps and diaphragm harvested. Protein extracts are made from the muscles as reported (Gurpur et al., 2009). […]

[2] = system: Akt; test: Western blotting of activated and total Akt in quadriceps of mdx/utrn−/− mice; format: in vivo, mouse; details: 240 mg/kg i.p. twice daily for 5 weeks
Method: mdx/utrn−/− mice lack both dystrophin and utrophin, and were bred and genotyped as reported in Burkin, et al., Enhanced expression of the alpha 7 beta 1 integrin reduces muscular dystrophy and restores viability in dystrophic mice, J. Cell Biol. 152:1207-18 (2001). 240 mg/kg body weight of VPA was injected intraperitoneally twice daily into mdx/utrn^−/− mice (n=9) starting at 3 weeks of age, for a period of 5 weeks. Control mice were injected with saline (n=9). Body-weights were determined daily.
Cell lysates of differentiating cells on 60 mm dishes were prepared as follows: the cells were washed twice with PBS and 200 μl Triton X-100 lysis buffer (2% Triton X-100, 20 mM Tris-Cl, pH 7.4, 150 mM NaCl, 1 mM EDTA, 1 mM EGTA, 2.5 mM NaPPi, 1 mM β-glycerophosphate, 1 mM sodium vanadate, 1:200 Protease Inhibitor Cocktail (EMD Chemicals, San Diego, Calif.) and 1 mM PMSF) were added. The cells were scraped and transferred into Eppendorf tubes, the cell suspensions were triturated and centrifuged at 8000×g at 4° C. for 10 minutes, and the supernatants were collected. […] Protein concentrations were determined by the Bradford assay. […] The supernatants were collected and protein concentrations were determined spectrophotometrically at OD260 and OD280. […] ImageQuant analysis software (Molecular Dynamics, Sunnyvale, Calif.) was used to quantify band intensity.

[3] = system: CD8 positive cytotoxic T-cells; test: Quantification of CD8 positive cells in muscle; format: in vivo, mouse; details: 240 mg/kg i.p. twice daily for 5 weeks, quadriceps
Method: 240 mg/kg body weight of VPA was injected intraperitoneally twice daily into mdx/utrn^−/− mice (n=9) starting at 3 weeks of age, for a period of 5 weeks. Control mice were injected with saline (n=9). Body-weights were determined daily. 8 μm thick cryosections of the quadriceps muscles of saline and VPA injected mice were made. Cytotoxic T-cells were detected with a FITC-labeled rat anti-mouse CD8a antibody (BD Pharmingen, San Diego, Calif.) as follows: the sections were fixed in 4% paraformaldehyde for 5 minutes, washed in PBS three times for 5 minutes each, blocked with 5% BSA/PBS for 1 hour, anti-CD8 antibody added at 1:1000 dilution for 1 hour and washed in 1% BSA/PBS three times for 5 minutes each. The sections were mounted in Vectashield containing DAPI (Vector Laboratories). The number of CD8 positive cells and the total number of nuclei in the same field were counted in ten random fields for each mouse. The ratio of the number of CD positive cells to the total number of nuclei were calculated, averaged and plotted for the saline and VPA treated groups.

CCCC(CCC)C(=O)O [VPA, valproic acid]
Akt pathway in skeletal muscle of dyw mice [1]: activates the Akt pathway
apoptosis in skeletal muscle of dyw mice [1]: inhibiting apoptosis
fiber-diameter variation in skeletal muscle of dyw mice [1]: decreasing fiber-diameter variation
fibrosis in skeletal muscle of dyw mice [1]: decreasing fibrosis
pathology in dyw mice [1]: ameliorate pathology
levels of activated Akt in muscle [2]: Significantly higher levels
decrease of CD8 positive cytotoxic T-cell content [3]: approximately 2.1 fold
